{"source": "paper PMC10377753", "about": "“Pharmacokinetic and pharmacodynamic properties of polymyxin B in Escherichia coli and Klebsiella pneumoniae murine infection models” (Journal of Antimicrobial Chemotherapy, 2023)", "key": {"[1]": {"test": "Plasma PK after single subcutaneous dose in infected neutropenic mice, population PK model", "type": "in vivo", "settings": "for Time up to which plasma levels were detectable: LOQ 0.2 mg/L", "description": "Mice were injected subcutaneously with a 0.1 mL single dose of polymyxin B 2 h after infection (t = 0). The PK of polymyxin B ranging between 0.5 and 64 mg/kg were determined in two mice per dose level. Mice were separated into two groups, with four dose levels studied in the thigh infection model (0.5, 2, 8, 32 mg/kg) and four dose levels studied in the lung infection model (1, 4, 16, 64 mg/kg). At t = 0, two mice were humanely euthanized to determine the bacterial load in the infected organ at the start of infection. At 10 different timepoints, blood was collected under isoflurane anaesthesia, in K3E EDTA tubes (Sarstedt, Nümbracht, Germany) through orbital sinus bleeding, which was immediately followed by cervical dislocation. The collected blood samples were centrifuged immediately at 15 871 RCF for 5 min at 4°C. Plasma was stored at −80°C until analysis.\nPolymyxin B concentrations in plasma, BAL and ultrafiltrates were determined by a validated LC-MS/MS method,[18] with a lower limit of quantification (LOQ) of 0.2 mg/L for plasma and 0.05 mg/L for BAL fluid and ultrafiltrates. In this assay, 0.1 mL of plasma or 0.05 mL of BAL fluid or ultrafiltrates was added to 0.05 mL of drug-free plasma, and was mixed with 0.75 mL of phosphate buffer (pH 7.2) and 0.01 mL of internal standard (colistin sulphate, Merck KGaA, Darmstadt, Germany) at 6.25 mg/L for plasma and 5 mg/L for BAL fluid and ultrafiltrates. The samples were briefly vortexed and then centrifuged at 3000 rpm for 5 min. The supernatants (0.8 mL) were loaded onto solid-phase extraction columns (Oasis HLB solid-phase extraction cartridges, 1 mL, 30 mg, Waters, Saint-Quentin-en-Yvelines, France), preconditioned with 1 mL of methanol and followed by 1 mL of water. Columns were washed with 1 mL of water and dried under nitrogen pressure. The analytes were eluted with 0.5% formic acid in methanol and they were evaporated at 45°C under a gentle nitrogen jet stream. The residues were dissolved in 0.1 mL of 0.1% formic acid in water and analysed by LC-MS/MS. The system included an Alliance Waters 2695 LC system module (Waters) coupled with an API Quattro Micro (Waters). Polymyxin B was analysed on an XBridge C18 column (5 µm, 2.1 × 150 mm; Waters). The mobile phase A consisted of 0.1% formic acid in water, and mobile phase B was 0.1% formic acid in acetonitrile. The gradient for mobile phases A and B were respectively set at 75% and 25% with a flow rate of 0.2 mL/min. Electrospray ionization in positive mode was used for the detection of polymyxin B. Ions were analysed in the multiple reaction monitoring, and the following transitions were inspected: m/z 602.1→101 for polymyxin B1, m/z 595.1→101 for polymyxin B2, m/z 585.1→101 for CSTA and m/z 578.1→101 for CSTB. Calibration curves of polymyxin B ranged from 0.1 to 10 mg/L for plasma and ultrafiltrates, and were quantified with a quadratic regression mode. The intraday variability was characterized at four levels (0.3, 1, 2.5 and 10 mg/L) with a precision and bias of <20% for the lowest level, and <15% for the others.\nA population PK model was developed using non-linear mixed-effects modelling (NONMEM, version 7.4.2 ICON Development Solutions, Ellicott City, MD, USA). The analysis was performed using the FOCE + I method on logarithmically transformed concentrations and data below the LOQ were omitted. Parameters were calculated for a virtual 1 kg mouse, resulting in pharmacokinetic parameters corresponding on a per kg base. In the first step a structural model was developed, using one- and two-compartment models. The absorption following subcutaneous injections was described using an absorption rate constant (ka). Typical values for central (Vc) and peripheral volume of distribution (Vp), CL and intercompartmental clearance (Q) were estimated. As bioavailability (F) could not be estimated, CL, Vc, Q, and Vp values corresponded to the ratios CL/F, Vc/F, Q/F and Vp/F, respectively. […]"}, "plasma proteins": {"tested_on": "plasma proteins", "settings": "clinical studies; cited from earlier work", "description": "A previously published population PK model[19] and Monte Carlo simulations was used to estimate the fAUCs of 5000 patients treated with 200 mg q24h (MicLab 2.71) taking into account protein-binding rates ranging from 36% to 98% as previously reported.[20–23] The PTA was calculated for isolates with MICs ranging from 0.25 to 4 mg/L. || In clinical studies, the protein binding of polymyxin B is much higher than reported in mice, with protein binding in plasma up to 99% for polymyxin B.[22],[26],[27] This applies to colistin as well.[5],[28] Therefore, the PK/PD targets based on the unbound fraction are necessary for translating PK/PD data of polymyxin B to the clinic."}}, "note": "Counter-ions that a name gives are not always drawn. Bridge positions count the residues as written; N and C are the ends. Square brackets hold non-standard residues; d marks the D form. Peptide text beside a SMILES is read from it. * marks the point of attachment. X1 = CC[C@H](C)CCCCC(=O)*; Dab = NCC[C@H](N)C(=O)O", "data": [{"smiles": "CC[C@H](C)CCCCC(=O)N[C@@H](CCN)C(=O)N[C@H](C(=O)N[C@@H](CCN)C(=O)N[C@H]1CCNC(=O)[C@H]([C@@H](C)O)NC(=O)[C@H](CCN)NC(=O)[C@H](CCN)NC(=O)[C@H](CC(C)C)NC(=O)[C@@H](Cc2ccccc2)NC(=O)[C@H](CCN)NC1=O)[C@@H](C)O", "note": "[polymyxin B, Polymyxin B sulphate salt] (X1-[Dab]T[Dab][Dab][Dab][dF]L[Dab][Dab]T; lactam 4-C)", "values": [{"measurement": "ka, absorption rate constant for 10 mg/kg dose", "setting": "[1]; infected neutropenic mice, single s.c. dose 0.5–64 mg/kg, plasma LC-MS/MS, population PK (NONMEM), one-compartment, first-order absorption", "value": 1.63, "unit": "h⁻¹"}, {"measurement": "Time up to which plasma levels were detectable", "setting": "[1]; mouse, s.c., doses 16–64 mg/kg", "value": "up to 8 h"}, {"measurement": "Time up to which plasma levels were detectable", "setting": "[1]; mouse, s.c., doses up to 8 mg/kg", "value": "up to 6 h"}, {"measurement": "Time to peak (Tmax)", "setting": "[1]; mouse, s.c., thigh and lung infection model", "value": "≤ 2", "unit": "h"}, {"measurement": "CL/F", "setting": "[1]; mouse, sc, 10 mg/kg, infected neutropenic mice, single s.c. dose 0.5–64 mg/kg, plasma LC-MS/MS, population PK (NONMEM), one-compartment, read-out: CL/F, clearance for 10 mg/kg dose (converted)", "value": 6.4, "unit": "mL/min/kg"}, {"measurement": "Vd/F", "setting": "[1]; mouse, sc, infected neutropenic mice, single s.c. dose 0.5–64 mg/kg, plasma LC-MS/MS, population PK (NONMEM), one-compartment, read-out: Vc/F, central volume of distribution", "value": 0.774, "unit": "L/kg"}, {"measurement": "Dose on CL, power on covariate effect of dose on CL", "setting": "[1]; population PK model, CL = 0.384 × (DOSE/10)^−0.26", "value": "−0.26"}, {"measurement": "Dose on ka, power on covariate effect of dose on ka", "setting": "[1]; population PK model, ka = 1.63 × (DOSE/10)^−0.407", "value": "−0.407"}, {"measurement": "Protein binding in plasma", "setting": "plasma proteins", "value": "up to 99%"}]}]}
